In US20260263400A1, “COMPOUND COMPOSITION INCLUDING TRANEXAMIC ACID AND TRETINOIN” (Nanjing Indetek Laboratory Co., Ltd., priority 2023, published 2026):
Entries after “also recorded” stand apart in the source; their conditions may differ.

System: Guinea pig, Hartley-Dunkin

O=[N+]([O-])c1ccc(Cl)c([N+](=O)[O-])c1 [1-Chloro-2,4-dinitrobenzene]
body weight compared with the negative control group (D15, D31, D38): male animals showed slow weight gain; also recorded: female animals showed no significant difference in body weight | incidence of allergic reaction (after challenge): 100%
